Data: publication PMC8282797, “Strictly regulated agonist-dependent activation of AMPA-R is the key characteristic of TAK-653 for robust synaptic responses and cognitive improvement” (Scientific Reports, 2021)

Key:
AMPA-R [1] = assay: Whole-cell patch clamp recording using rat primary hippocampal neurons; type: cell-based; set-up: key to Single effect on AMPA-R currents: -: No effect or slight effect; +: Potent; ++: Very potent; settings: for Single effect on AMPA-R currents: summary grade
Method: Whole-cell patch clamp recording using primary neurons between 11 and 20 days in vitro was performed as previously described. Patch electrodes with tip resistances ranging from 3 to 5 MΩ were filled with an intracellular solution containing: 135 mM CsCl, 1 mM MgCl2, 10 mM HEPES, 10 mM EGTA, 4 mM MgATP, and 0.3 mM Na2GTP, adjusted to pH7.3 with CsOH (osmolality 275–295 mosm/L). The extracellular solution contained: 140 mM NaCl, 4 mM KCl, 2 mM CaCl2, 1 mM MgCl2, 10 mM HEPES, 5 mM NaHCO3, 10 mM D( +)-glucose, and 0.001 mM TTX, adjusted to pH7.4 with NaOH (osmolality 300–315 mosm/L). All experiments were carried out at room temperature. Neurons were voltage-clamped at − 80 mV. Steady-state inward currents were evoked by the application of AMPA and AMPA potentiator via Y-tube perfusion system. Signals were recorded using a Multiclamp 700B amplifier (Molecular Devices, LLC, Orleans Drive Sunnyvale, CA), digitized using a Digidata 1440A interface board, filtered between 2 kHz, sampled at 10 kHz, and analyzed with pClamp10 software. Details are described in the Supplementary Information.
Whole-cell patch clamp technique was used for recording current from cultured rat hippocampal neurons between 11-20 days in vitro. Patch electrodes with tip resistances ranging from 3 to 5 MΩ were filled with an intracellular solution containing: 135 mM CsCl, 1 mM MgCl2, 10 mM HEPES, 10 mM EGTA, 4 mM Mg-ATP, 0.3 mM Na2-GTP, adjusted to pH7.3 with CsOH (osmolality 275-295 mosm/L). The extracellular solution contained: 140 mM NaCl, 4 mM KCl, 2 mM CaCl2, 1 mM MgCl2, 10 mM HEPES, 5 mM NaHCO3, 10 mM D(+)-glucose, and 0.001 mM TTX, adjusted to pH7.4 with NaOH (osmolality 300-315 mosm/L). All experiments were carried out at room temperature and performed using an Axopatch-1D amplifier with pCLAMP 9 software (Molecular Devices, LLC, Orleans Drive Sunnyvale, CA), low-pass filtered at 2 kHz, and stored on the computer hard-disk for off-line analysis. Neurons were voltage-clamped at –80mV. Steady-state inward currents were evoked by the application of AMPA and AMPA potentiator via Y-tube perfusion system. AMPA-R potentiator was applied 20 s prior to 10-s AMPA stimulus. The current at all drug concentrations tested was normalized by the steady-state current induced by 1 μM AMPA. In the absence of AMPA, the maximum current during 60-s application of AMPA-R potentiator was normalized by the steady-state current induced by 100 μM AMPA.

AMPA-R [2] = assay: Ca2+ influx assay using rat primary hippocampal neurons; type: cell-based; set-up: key to Single effect on Ca2+ level: -: No effect or slight effect; +: Potent; ++: Very potent; settings: for Single effect on Ca2+ level: summary grade
Method: Ca^2+ influx assay using primary neurons was performed as previously described. After 5 days of culture, the cells plated on poly-D-lysine coated 96-well plates (Corning Incorporated) at 2 × 10^4 or 5 × 10^4 cells/well were used for experiments with PF-04958242 or TAK-653, respectively. Fluorescent calcium indicator dye solution (Calcium4 assay Kit, Dojindo, Kumamoto, Japan) in Ca^2+ reaction buffer (DMEM, HEPES and BSA) containing Probenecid (Dojindo) was added and incubated for 60 min in 5% CO2 at 37 °C. After washing once, the relative increases in intracellular Ca^2+ levels stimulated by compounds in the presence and absence of AMPA were monitored. Details are described in the Supplementary Information.
Primary cultures of hippocampal neuronal cells were prepared from fetal Sprague-Dawley rats at 19 days of gestation. Rat embryos were decapitated and their whole brains were isolated. Hippocampi were dissected in ice-cold Hanks' Balanced Salt Solutions (HBSS) under a microscope and then dispersed into cells using a neural cell dispersion kit (Sumitomo Bakelite Co., Ltd., Tokyo, Japan). The dissociated cells were suspended in Neurobasal medium containing B27 supplement (Thermo Fisher Scientific Inc.), 2 mM L-glutamine (Lonza, Basel, Switzerland), 100 U/mL penicillin (Lonza), 100 μg/mL streptomycin (Lonza) and 20 μg/mL gentamicin sulfate (Lonza). The cells were plated on poly-D-lysine coated 96-well plates (Corning Incorporated) for Ca^2+ influx assay or on poly-L-lysine coated 96-well plates (Sumitomo Bakelite) for measurement of BDNF protein levels and cultured in a humidified CO2 incubator with 5% CO2 at 37°C.
After 5 days of culture, the cells at 2×10^4 or 5×10^4 cells/well were used for experiments with PF-04958242 or TAK-653, respectively. For TAK-653, after removal of culture medium, 75 µL of fluorescent calcium indicator dye solution (Calcium4 assay Kit, Dojindo, Kumamoto, Japan) in Ca^2+ reaction buffer (DMEM, 10 mM HEPES and 0.1% BSA) containing 1.25 mM Probenecid (Dojindo) was added and incubated for 60 min in 5% CO2 at 37°C and washed once using 75 µL of fluorescent calcium indicator dye solution. After addition of 75 µL of fluorescent calcium indicator dye solution to each well again, the relative increases in intracellular Ca^2+ levels by compounds in the presence and absence of 5 μM AMPA were monitored for 8.5 min by fluorometric imaging plate reader. Activity of the compound was defined as fluorescence intensity integrated over the entire period of measurement. Intensity of 0% was defined as activity in the presence of only DMSO, while 100% was defined as activity in the presence of 5 μM AMPA and 10 μM HBT1. For PF-04958242, after removal of culture medium, 90 µL of fluorescent calcium indicator dye solution (Calcium4 assay Kit, Dojindo) in Ca^2+ reaction buffer (DMEM, 20 mM HEPES and 0.1% BSA) containing 2.5 mM Probenecid (Dojindo) was added and incubated for 60 min in 5% CO2 at 37°C. After addition of 90 µL of fluorescent calcium indicator dye solution to each well again, the relative increases in intracellular Ca^2+ levels by compounds in the presence and absence of 1 μM AMPA were monitored for 2 min in a microplate reader (CellLux, PerkinElmer, Waltham, MA, USA). Activity of the compound was defined as fluorescence intensity integrated over the entire period of measurement. 100% was defined as activity in the presence of 1 μM AMPA and 10 μM HBT1, while intensity of 0% was defined as activity in the presence of 1 μM AMPA or only DMSO for potentiator effect or agonistic effect, respectively. EC50 values were calculated by logistic regression analysis.

Compound | EC50 (AMPA-R [1]; single application, read-out: EC50, increase of AMPA-R-mediated currents) [µM] | Single effect on AMPA-R currents (AMPA-R [1]) | Intracellular Ca2+ levels (AMPA-R [2]; single application) | Single effect on Ca2+ level (AMPA-R [2]) | Potency relative to LY451646 in potentiation of AMPA-elicited currents (times less potent) (AMPA-R [1]) [times] | AMPA-R currents, Agonistic effect @30 μM (AMPA-R [1]; absence of AMPA, % of AMPA (100 μM)-induced steady-state response) [%] | EC50 (AMPA-R [1]; in the presence of 1 μM AMPA, read-out: AMPA-R currents, Potentiation EC50) [µM] | Intracellular Ca2+ level, Agonistic effect @30 μM (AMPA-R [2]; absence of AMPA, % of 5 μM AMPA + 10 μM HBT1 response) [%] | EC50 (AMPA-R [2]; in the presence of 5 μM AMPA, read-out: Intracellular Ca2+ level, Potentiation EC50) [µM]
Cc1onc(O)c1CC(N)C(=O)O (stereo not drawn) [AMPA, alpha-amino-3-hydroxy-5-methyl-4-isoxazole-propionic acid] | 45 | ++ | dose-dependently increased | + | – | – | – | – | –
CC1=CN2CCS(=O)(=O)N=C2C(c2ccc(OC3CCCCC3)cc2)=N1 [TAK-653, 9-[4-(Cyclohexyloxy)phenyl]-7-methyl-3,4-dihydropyrazino[2,1-c][1,2,4]thiadiazine 2,2-dioxide] | – | ─ | – | ─ | 2.3 | 1.7 | 4.4 | 4.8 | 0.93
